System: cell cycle in zebrafish embryos
Test: Cell cycle profiles in zebrafish embryos (propidium iodide, flow cytometry)
Assay type: in vivo
Details: zebrafish embryos incubated from 4 hours post fertilization overnight, DNA content by flow cytometry
Procedure: FIG. 2 is a group of cell cycle profiles of active compounds tested in 24 hour zebrafish embryos. Specifically, embryos incubated with E3 fishwater (panel A), hydroxyurea (panel B), compound C4 (panel C), and compound C3 (panel D) are shown. After overnight incubation, single cell solution of embryos was prepared and incubated with propidium iodide. Samples were then subjected to flow cytometry to determine DNA content (X axis). Small arrowheads below the X-axis are placed beneath the diploid (G1) n=2 peak, and the tetraploid (G2/M) n=4 peaks. Cells between these two peaks are in S phase. Cells to the left of the G1 peak (sub G1 peak) have lost chromosomes (n<2), and are presumably dying (indicated as % debris in the right hand legend of each panel). Relative numbers of cells (Y-axis) in the different phases of the cell cycle are given on the right side of each panel.
All of these compounds were tested for effects on the cell cycle in zebrafish embryos. Zebrafish embryos were incubated at 4 hours post fertilization with compounds or controls. After overnight incubation in compounds, single cell solution of embryos was prepared and incubated with propidium iodide. Samples were then subjected to flow cytometry to determine DNA content. […] Examples are depicted in FIG. 2.
In FIG. 2, embryos incubated with (A) E3 fishwater, (B) hydroxyurea, (C) compound C4, and (D) C3 are shown. Diploid (G1, n=2) and tetraploid (G2/M, n=4) peaks are identified on the X-axis. Small arrowheads below the X-axis are placed beneath the dipoid (G1) n=2 peak, and the tetraploid (G2/M) n=4 peaks. Cells between these two peaks are in S phase. Cells to the left of the G1 peak (sub G1 peak) have lost chromosomes (n<2) and are presumably dying (indicated as % debris in the right hand legend of each panel). Relative numbers of cells (Y axis) in the different phases of the cell cycle are given on the right side of each panel.

Q: With `NC(=O)NO` [hydroxyurea, reference compound] as the compound, how does the “Effect on the cell cycle” value read?
A: Its value is “S phase arrest”.

— US8039505B2, “Compounds for modulating T-cells” (University of Utah Research Foundation, priority 2007, dated 2011)
